The text below walks through data of patent US20100041632A1, “USES OF THE CARBOXY-AMIDO-TRIAZOLE COMPOUNDS AND SALTS THEREOF” (priority 2006, published 2010).

Structures are written as SMILES.

Data set [1] relates to Kunming mice. In words: Croton oil-induced ear edema mouse model. In kind it is in vivo. The following applies: ear weight difference 4 hours after 2% croton oil; CAI/analogs 2 mg/ml ig, dexamethasone 0.2 mg/ml ip, 0.1 ml/10 g/day, 3 days. On the procedure: Male Kunming mice, weighted 18-22 g, were randomly divided to the following experiment groups, 20 mice/group:
Negative control: normal saline was injected (ig), 0.1 ml/10 g/day for 3 consecutive days.
Vehicle control: PEG400 was injected (ig), […] for 3 consecutive days.
Positive control: Dexamethasone (0.2 mg/ml) was injected (ip), 0.1 ml/10 g/day for 3 consecutive days.
Test group: CAI or its analogs (2 mg/ml, analogs are as described in example 5) was administered (ig), 0.1 ml/10 g/day for 3 consecutive days.
8 hours after the last administration, 20 μl of croton oil solution (2%) was applied to the right ear of each mouse. The left ear remained untreated as control. The animals were sacrificed 4 hours later, and a piece of tissue was punched from the same position of the treated and untreated ear. The tissues were weighed on a 0.1 mg balance. The difference in weight between the two pieces of tissue of each mouse was taken as a measure of swelling intensity.

Data set [2] relates to rats. In words: Granulomatous tissue formation (implanted tampon). The data set is classed as in vivo. The following applies: 7 days; CAI 20 mg/kg/day p.o.; dexamethasone 0.067 mg/kg/day i.p. On the procedure: 44 rats (160 g) were randomly divided into 4 groups (11 rats/group). Animals were slightly anaesthetized by ether. After sterilization, the groin was cut bilaterally. A sterile tampon (50 mg) was implanted (sc). On the same day, the following treatments were administered: N.S. (i.p., control group), 0.067 mg/kg/day dexamethasone (i.p., positive control), 20 mg/kg/day CAI (p.o., dissolved in PEG 400, test group) and 0.067 mg/kg/day dexamethasone+20 mg/kg/day CAI (p.o., dissolved in PEG 400, combination group). After 7 days administration, the animals were sacrificed. The cotton was removed. The granulomatous tissue was dried at 60° C. oven for 12 hr and weighed. Increment in the dry weight of the tissue was taken as measure of granuloma formation. The Increment was adjusted for respective body weight, and the mean value for each group was calculated.

Data set [3] deals with Wistar rats. In words: Adjuvant induced arthritis (AA) of rat, paw oedema. In kind it is in vivo. On the procedure: Negative control (AA+NS): […] positive control (AA+Dex): dexamethasone, i.p., 0.067 mg/kg/day. Vehicle control (AA+PEG400): […] CAI (AA+CAI): 20 mg/ml CAI, ig, 0.1 ml/100 g/day (20 mg/kg/day). Combination (AA+CAI+Dex): dexamethasone, 0.067 mg/kg/day (i.p.) plus CAI 20 mg/kg/day (p.o.). Normal volumes of left and right hind paw were measured before adjuvant injection. […]

For data set [4], the system named is TNF-α. Kind of data set: TNF-α levels in paw tissue and serum of adjuvant arthritis rat (ELISA). The data set is classed as in vivo. The conditions noted are these: administered in combination with CAI. On the procedure:
(§1) Blood was collected from eve socket on day 29 and left in room temperature to allow coagulating. Then serum was separated by centrifugation at 3000 rpm for 10 min and kept in −20° C. After animals were sacrificed, the subcutaneous tissue of the right hind paw and that surrounding the tarsotibial joints was removed, broke into pieces, and placed in 5 ml normal saline (0.9%). The tissues were homogenized in a high speed homogenizer. Then the homogenate was centrifuged at 4° C. and 10,000 rpm for 15 min. The supernatants were collected and stored at −20° C. until further analysis.
(§2) IL-1β and TNF-α levels in paw tissue and serum were measured using specific rat ELISA kits according to the manufacturer's instructions.
On the technique in general: In an ELISA, binding on a coated surface is turned into a signal by an enzyme label.

Data set [5] concerns IL-1β. Kind of data set: IL-1β levels in paw tissue and serum of adjuvant arthritis rat (ELISA). The following applies: administered in combination with CAI. In kind it is in vivo. As to the method: as §1, with “The adjuvant arthritis rat was prepared as described in example 8. Treatment was performed as described in example 8. Blood” for “Blood”
as §2

For data set [6], the system named is Kunming mice. In words: Effect of CAI on drug addiction caused by morphine (naloxone-induced jumping). As to the method:
160 Kunming mice (18-22 g, half male and half female) were divided into 4 groups randomly, with 40 mice per group:
Control group with solvent, PEG400/N.S. (10 μl/g/day PEG400, (ig), 4 days);
Group treated with CAI, CAI/N.S. (CAI is resolved in PEG400 to reach a final concentration of […], 20 mg CAI/kg/day was administered (ig) for 4 days, N.S. was taken according to morphine administration in table 1);
Group treated with morphine, PEG400/morphine (10 μl/g/day PEG400 was administered (ig) for 4 days, morphine was administered according to the table below);
4 hours after the morphine administration on the fifth day, animals of each group was injected (ip) with 1 mg/kg naloxone and then put into a tank (5000 ml) immediately. The jump frequency in 30 minutes was recorded. Two-factor analysis of variance by SPSS was performed to analyse the experiment results.

Data set [7] deals with Kunming mice. In words: Formalin test (analgesic effect). The data set is classed as in vivo. On the procedure:
320 Kunming mice (18-22 g, half male and half female) were divided into 4 groups randomly with 80 animals in each group.
Control group with dissolvent (PEG400/N.S.): 10 μl PEG400 was administered (ig) twice with the interval of 24 hours. The pain intensity test was carried out 8 hours after the second administration. 200 μl N.S. is injected (sc) 5 minutes before the test.
(§3) Morphine/PEG400 group: 10 μl PEG400 was administered (ig) twice with the interval of 24 hours. The pain intensity test was carried out 8 hours after the second administration. Morphine (2 mg/kg body weight) was injected (sc) 5 minutes before the test.
(§4) CAI/N.S. group: CAI (20 mg/kg body weight, 2 mg/ml) was administered (ig) twice with the interval of 24 hours. The pain intensity test was carried out 8 hours after the second administration. 200 μl N.S. was injected (sc) 5 minutes before the test.
(§5) The pain intensity test was carried out 8 hours after the second administration. Morphine (2 mg/kg body weight) was injected (sc) 5 minutes before the test.
5 minutes after the morphine or N.S. injection, 20 μl 2% formalin was injected (sc) into the subplantar space of the hind paw. The animals were placed immediately in a glass cylinder hanging on a holder, with a mirror placed below with 30° slope to observe the paw responses. The pain responses of the animals with injected paws were recorded; a pain ranking was recorded as follows: 3=the injected paw is licked, bitten, or shaken; 2=the injected paw is elevated and is not in contact with any other surface; 1=the injected paw has little or no weight on it; 0=the injected paw is not favored. The duration of each of the 4 behavioral categories was recorded. The observation lasted for 15 minutes. A pain intensity score was calculated by multiplying the amount of time spent in each category by its assigned category score and adding these products together.

Data set [8] has as its system Kunming mice. Kind of data set: Hot plate test (analgesic effect). In kind it is in vivo. As to the method: Kunming mice (18-22 g, female) were randomly divided into 4 groups with 20 animals per group.
(§6) Control group with dissolvent: 10 μl PEG400 was administered (ig) twice with the interval of 24 hours. The pain intensity test was carried out 8 hours after the second administration. 200 μl N.S. was injected (sc) 5 minutes before the test.
as §3, §4, §5
The mice were placed onto a hot plate (53±0.5° C.) and the latency periods (second) of hopping responses were recorded as the pain threshold index.

The test system of data set [9] is Kunming mice. Kind of data set: Radiant heat test (tail-flick). In kind it is in vivo. As to the method: The radiant heat dolorimeter (Collumbus Instruments) is used in this model with the tail-flick mode and the exposure rate of 20. The latency periods (TFL) starting from the beginning of exposure to the tail-flick responses were recorded as the pain threshold. The exposure time lasted for 16 seconds.
Kunming mice (18-22 g, male) are tested for the basic pain threshold before the test with drug administration, and those with pain threshold longer than 16 seconds are excluded. The selected mice are divided into 4 groups with 15 animals per group.
as §6, §3, §4
The pain intensity test was carried out 8 hours after the second administration, morphine (2 mg/kg body weight) was injected (sc) 5 minutes before the test.
The pain threshold of each mouse was tested before and after morphine or N.S. injection. The values after drug administration minus those before drug administration were considered to be the changing index of pain threshold.

`C[C@@H]1C[C@H]2[C@@H]3CCC4=CC(=O)C=C[C@]4(C)[C@@]3(F)[C@@H](O)C[C@]2(C)[C@@]1(O)C(=O)CO` [dexamethasone, reference compound]: in [1], the “Swelling intensity (mg) mean ± std” value was 1.5 ± 0.4 mg. Also, the “granulomatous tissue:bady weight ratio (mean ± std)” value in data set [2] stood at 0.064 ± 0.00495. Further, the “Primary paw oedema (%), mean ± std” value in data set [3] (1 d, CAI 20 mg/kg/day ig, Dex 0.067 mg/kg/day i.p.) was determined as 111.3 ± 13.6 %; in data set [3] (2 d), 121.9 ± 16.0 %; in data set [3] (5 d) it was 107.4 ± 12.5 %; in data set [3] (8 d), 103.6 ± 14.0 %; in data set [3] (11 d), 100.3 ± 21.0 %; in data set [3] (14 d) it was 100.0 ± 11.3 %. The “Primary paw oedema (%), mean ± std” value in data set [3] (17 d) worked out at 95.3 ± 15.7 %; in data set [3] (20 d), 83.9 ± 24.0 %; in data set [3] (23 d) it was 80.4 ± 17.8 %; in data set [3] (26 d), 78.6 ± 23.1 %; in data set [3] (29 d), 73.9 ± 18.0 %. Further, the “Secondary paw oedema (%), mean ± std” value worked out at 1.1 ± 1.0 % in [3] (14 d, right hind paw); 1.9 ± 1.4 % in data set [3] (17 d); 2.8 ± 0.9 % in data set [3] (20 d); 4.6 ± 1.4 % in [3] (23 d); 3.6 ± 1.7 % in data set [3] (26 d); 2.5 ± 1.7 % in data set [3] (29 d).

Consider `CC(=O)O.NC(=O)c1nnn(Cc2cc(Cl)c(C(=O)c3ccc(Cl)cc3)c(Cl)c2)c1N` [CAI acetate], for which, in data set [4], the “Inhibitory effect on serum levels of TNF-α (in words)” value was “obvious and even more pronounced”. For the same molecule, the “Inhibitory effect on serum levels of IL-1β (in words)” value in data set [5] was “obvious and even more pronounced”.

Regarding `Cl.NC(=O)c1nnn(Cc2cc(Cl)c(C(=O)c3ccc(Cl)cc3)c(Cl)c2)c1N` [CAI hydrochlorate], the “Inhibitory effect on serum levels of TNF-α (in words)” value in data set [4] was “obvious and even more pronounced”. For the same molecule, in data set [5], the “Inhibitory effect on serum levels of IL-1β (in words)” value is “obvious and even more pronounced”.

As to `CN1CC[C@]23c4c5ccc(O)c4O[C@H]2[C@@H](O)C=C[C@H]3[C@H]1C5` [morphine, reference compound], the “Mean number of jump” value in data set [6] (jump frequency in 30 minutes after naloxone 1 mg/kg ip, CAI 20 mg/kg/day ig 4 days, morphine per Table 1, mean ± std) amounted to 41 ± 58. For the same molecule, in data set [6] (naloxone-induced jumping, two-factor ANOVA vs PEG400/N.S.), the “Addiction / withdrawal syndrome (in words)” value is “causes obvious withdrawal syndrome”. Besides, the “Pain intensity score (mean ± std)” value in data set [7] (2% formalin sc hind paw, 15 minutes observation, CAI 20 mg/kg ig twice, morphine 2 mg/kg sc) was 756 ± 441. The “Analgesic effect in formalin test (in words)” value in data set [7] (pain scores compared with the control group) is on record as “decrease significantly”. Further, the “Pain threshold (sec, mean ± std)” value in data set [8] (hot plate 53±0.5° C., latency of hopping response, CAI 20 mg/kg ig twice, morphine 2 mg/kg sc) turned out to be 31.9 ± 12.1 s. Besides, in data set [8] (two-factor ANOVA), the “Analgesic effect in hot plate test (in words)” value was “extends the pain response time very significantly”. The “Analgesic effect in radiant heat test (in words)” value in [9] (compared with the control group) was “extended the pain threshold time very significantly”. Also, the “Pain threshold change (seconds, mean ± std)” value in data set [9] (tail-flick latency after minus before drug, CAI 20 mg/kg ig twice, morphine 2 mg/kg sc) was 6.95 ± 5.69 s.
